# Test results from PubChem BioAssay (NCI).
#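 96-well plates; 48 h exposure; 5 concentrations. Endpoints by linear interpolation between flanking doses. Not reached: highest tested concentration assigned. The concentration for 50% growth inhibition is given as GI50. TGI denotes the concentration required for complete inhibition of growth.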
# Legend:
# Assay in all cases: NCI-60 cell line screen, 48 h
# 786-0 renal = tested on: 786-0 renal
# A498 renal = tested on: A498 renal
# A549 NSCLC = tested on: A549 NSCLC
# ACHN renal = tested on: ACHN renal
# BT-549 breast = tested on: BT-549 breast
# CAKI-1 renal = tested on: CAKI-1 renal
# CCRF-CEM leukemia = tested on: CCRF-CEM leukemia
# COLO 205 colon = tested on: COLO 205 colon
# DU-145 prostate = tested on: DU-145 prostate
# EKVX NSCLC = tested on: EKVX NSCLC
# HCC-2998 colon = tested on: HCC-2998 colon
# HCT-116 colon = tested on: HCT-116 colon
# HCT-15 colon = tested on: HCT-15 colon
# HL-60(TB) leukemia = tested on: HL-60(TB) leukemia
# HOP-62 NSCLC = tested on: HOP-62 NSCLC
# HOP-92 NSCLC = tested on: HOP-92 NSCLC
# HS 578T breast = tested on: HS 578T breast
# HT29 colon = tested on: HT29 colon
# IGROV1 ovarian = tested on: IGROV1 ovarian
# K-562 leukemia = tested on: K-562 leukemia
# KM12 colon = tested on: KM12 colon
# LOX IMVI melanoma = tested on: LOX IMVI melanoma
# M14 melanoma = tested on: M14 melanoma
# MALME-3M melanoma = tested on: MALME-3M melanoma
# MCF7 breast = tested on: MCF7 breast
# MDA-MB-231 breast = tested on: MDA-MB-231 breast
# MDA-MB-435 = tested on: MDA-MB-435
# MOLT-4 leukemia = tested on: MOLT-4 leukemia
# NCI-H226 lung = tested on: NCI-H226 lung
# NCI-H23 lung = tested on: NCI-H23 lung
# NCI-H460 lung = tested on: NCI-H460 lung
# NCI-H522 lung = tested on: NCI-H522 lung
# NCI/ADR-RES ovarian = tested on: NCI/ADR-RES ovarian
# OVCAR-3 ovarian = tested on: OVCAR-3 ovarian
# OVCAR-4 ovarian = tested on: OVCAR-4 ovarian
# OVCAR-5 ovarian = tested on: OVCAR-5 ovarian
# OVCAR-8 ovarian = tested on: OVCAR-8 ovarian
# PC-3 prostate = tested on: PC-3 prostate
# RPMI-8226 leukemia = tested on: RPMI-8226 leukemia
# RXF 393 renal = tested on: RXF 393 renal
# SF-268 CNS = tested on: SF-268 CNS
# SF-295 CNS = tested on: SF-295 CNS
# SF-539 CNS = tested on: SF-539 CNS
# SK-MEL-2 melanoma = tested on: SK-MEL-2 melanoma
# SK-MEL-28 melanoma = tested on: SK-MEL-28 melanoma
# SK-MEL-5 melanoma = tested on: SK-MEL-5 melanoma
# SK-OV-3 ovarian = tested on: SK-OV-3 ovarian
# SN12C renal = tested on: SN12C renal
# SNB-19 CNS = tested on: SNB-19 CNS
# SNB-75 CNS = tested on: SNB-75 CNS
# SR leukemia = tested on: SR leukemia
# SW-620 colon = tested on: SW-620 colon
# T-47D breast = tested on: T-47D breast
# TK-10 renal = tested on: TK-10 renal
# U251 CNS = tested on: U251 CNS
# UACC-257 melanoma = tested on: UACC-257 melanoma
# UACC-62 melanoma = tested on: UACC-62 melanoma
# UO-31 renal = tested on: UO-31 renal
structure (smiles),measurement,setting,value
COC(=O)c1cnc(=O)n(C2CC(O)C(CO)O2)c1 (centres undefined),GI50,786-0 renal,> 100 µM
same,TGI,786-0 renal,> 100 µM
same,GI50,A498 renal,> 100 µM
same,TGI,A498 renal,> 100 µM
same,GI50,A549 NSCLC,> 100 µM
same,TGI,A549 NSCLC,> 100 µM
same,GI50,ACHN renal,> 100 µM
same,TGI,ACHN renal,> 100 µM
same,GI50,BT-549 breast,> 100 µM
same,TGI,BT-549 breast,> 100 µM
same,GI50,CAKI-1 renal,> 100 µM
same,TGI,CAKI-1 renal,> 100 µM
same,TGI,CCRF-CEM leukemia,> 100 µM
same,GI50,COLO 205 colon,> 100 µM
same,TGI,COLO 205 colon,> 100 µM
same,GI50,DU-145 prostate,> 100 µM
same,TGI,DU-145 prostate,> 100 µM
same,GI50,EKVX NSCLC,> 100 µM
same,TGI,EKVX NSCLC,> 100 µM
same,GI50,HCC-2998 colon,> 100 µM
same,TGI,HCC-2998 colon,> 100 µM
same,GI50,HCT-116 colon,> 100 µM
same,TGI,HCT-116 colon,> 100 µM
same,GI50,HCT-15 colon,> 100 µM
same,TGI,HCT-15 colon,> 100 µM
same,GI50,HL-60(TB) leukemia,> 100 µM
same,TGI,HL-60(TB) leukemia,> 100 µM
same,GI50,HOP-62 NSCLC,> 100 µM
same,TGI,HOP-62 NSCLC,> 100 µM
same,TGI,HOP-92 NSCLC,> 100 µM
same,GI50,HS 578T breast,> 100 µM
same,TGI,HS 578T breast,> 100 µM
same,GI50,HT29 colon,> 100 µM
same,TGI,HT29 colon,> 100 µM
same,GI50,IGROV1 ovarian,> 100 µM
same,TGI,IGROV1 ovarian,> 100 µM
same,GI50,K-562 leukemia,> 100 µM
same,TGI,K-562 leukemia,> 100 µM
same,GI50,KM12 colon,> 100 µM
same,TGI,KM12 colon,> 100 µM
same,GI50,LOX IMVI melanoma,> 100 µM
same,TGI,LOX IMVI melanoma,> 100 µM
same,GI50,M14 melanoma,> 100 µM
same,TGI,M14 melanoma,> 100 µM
same,GI50,MALME-3M melanoma,> 100 µM
same,TGI,MALME-3M melanoma,> 100 µM
same,GI50,MCF7 breast,> 100 µM
same,TGI,MCF7 breast,> 100 µM
same,GI50,MDA-MB-231 breast,> 100 µM
same,TGI,MDA-MB-231 breast,> 100 µM
same,GI50,MDA-MB-435,> 100 µM
same,TGI,MDA-MB-435,> 100 µM
same,GI50,MOLT-4 leukemia,> 100 µM
same,TGI,MOLT-4 leukemia,> 100 µM
same,GI50,NCI-H226 lung,> 100 µM
same,TGI,NCI-H226 lung,> 100 µM
same,GI50,NCI-H23 lung,> 100 µM
same,TGI,NCI-H23 lung,> 100 µM
same,GI50,NCI-H460 lung,> 100 µM
same,TGI,NCI-H460 lung,> 100 µM
same,GI50,NCI-H522 lung,> 100 µM
same,TGI,NCI-H522 lung,> 100 µM
same,GI50,NCI/ADR-RES ovarian,> 100 µM
same,TGI,NCI/ADR-RES ovarian,> 100 µM
same,GI50,OVCAR-3 ovarian,> 100 µM
same,TGI,OVCAR-3 ovarian,> 100 µM
same,GI50,OVCAR-4 ovarian,> 100 µM
same,TGI,OVCAR-4 ovarian,> 100 µM
same,GI50,OVCAR-5 ovarian,> 100 µM
same,TGI,OVCAR-5 ovarian,> 100 µM
same,GI50,OVCAR-8 ovarian,> 100 µM
same,TGI,OVCAR-8 ovarian,> 100 µM
same,GI50,PC-3 prostate,0.811 µM
same,TGI,PC-3 prostate,> 100 µM
same,GI50,RPMI-8226 leukemia,1.42 µM
same,TGI,RPMI-8226 leukemia,> 58.5 µM
same,GI50,RXF 393 renal,> 100 µM
same,TGI,RXF 393 renal,> 100 µM
same,GI50,SF-268 CNS,> 100 µM
same,TGI,SF-268 CNS,> 100 µM
same,GI50,SF-295 CNS,> 100 µM
same,TGI,SF-295 CNS,> 100 µM
same,GI50,SF-539 CNS,> 100 µM
same,TGI,SF-539 CNS,> 100 µM
same,GI50,SK-MEL-2 melanoma,> 100 µM
same,TGI,SK-MEL-2 melanoma,> 100 µM
same,GI50,SK-MEL-28 melanoma,> 100 µM
same,TGI,SK-MEL-28 melanoma,> 100 µM
same,GI50,SK-MEL-5 melanoma,> 100 µM
same,TGI,SK-MEL-5 melanoma,> 100 µM
same,GI50,SK-OV-3 ovarian,> 100 µM
same,TGI,SK-OV-3 ovarian,> 100 µM
same,GI50,SN12C renal,> 100 µM
same,TGI,SN12C renal,> 100 µM
same,GI50,SNB-19 CNS,> 100 µM
same,TGI,SNB-19 CNS,> 100 µM
same,GI50,SNB-75 CNS,> 100 µM
same,TGI,SNB-75 CNS,> 100 µM
same,GI50,SR leukemia,> 100 µM
same,TGI,SR leukemia,> 100 µM
same,GI50,SW-620 colon,> 100 µM
same,TGI,SW-620 colon,> 100 µM
same,GI50,T-47D breast,> 100 µM
same,TGI,T-47D breast,> 100 µM
same,GI50,TK-10 renal,> 100 µM
same,TGI,TK-10 renal,> 100 µM
same,GI50,U251 CNS,> 100 µM
same,TGI,U251 CNS,> 100 µM
same,GI50,UACC-257 melanoma,> 100 µM
same,TGI,UACC-257 melanoma,> 100 µM
same,GI50,UACC-62 melanoma,> 100 µM
same,TGI,UACC-62 melanoma,> 100 µM
same,GI50,UO-31 renal,> 100 µM
same,TGI,UO-31 renal,> 100 µM
